# Experimental data as given in patent publication US9555050B2 (BIOGEN MA INC., priority 2012, dated 2017).
# Molecular target: T1, Human ATX protein (Homo sapiens, UniProt Q13822)
# T1 construct: made in house
# Assay: ATX biochemical FRET assay with FS-3 substrate
# Settings: FS-3 substrate 2 μM, ATX 1.0 μg/mL, 30 min preincubation, 2 hours at room temperature
# Text: ATX (Autotaxin) is a 125 KDa glycoprotein with lysophospholipase D (LPLD) activity that generates the bioactive lipid lysophosphatidic acid (LPA) from lysophosphatidylcholine (LPC). The ATX biochemical assay utilizes a FRET (fluorescence resonance energy transfer) technology platform. The fluorescence signal of FRET substrate FS-3 is quenched due to intra-molecular FRET of a fluorophore to a non-fluorescing quencher (Ferguson, C. G., et al., Org Lett. 2006 May 11; 8(10): 2023-2026, which is incorporated by reference in its entirety). ATX catalyzes the hydrolysis of the substrate which separates the dabsyl quencher from the fluorescein reporter, which becomes fluorescent. The reaction is monitored by a SpectraMax M5 (Molecular Devices, Sunnyvale, Calif.) with at excitation wavelength 485 nm and emission wavelength […].
# Fatty acid free-BSA (Sigma A8806): 10 mg/mL in H2O, stored at 4° C.
# 2×ATX assay buffer: 100 mM Tris, 280 mM NaCl, 10 mM KCl, 2 mM CaCl2, 2 mM MgCl2, pH 7.4.
# Human ATX protein: expressed and purified in house. Stored at −80° C.
# Substrate FS-3 (Echelon, L-2000): 100 μg in 77.74.L H2O (1 mM stock), stored at −20° C.
# 384-well flat bottom plates—Corning #3575.
# Compound dilution—All compounds were provided at 10 mM in 100% DMSO. In the first well, 2 μL of 10 mM compound was added to 78 μL of DMSO (1:40 dilution). In subsequent wells 3-fold dilution (total 10 dilutions) were performed.
# 1×ATX assay buffer was made up with a final concentration of 1 mg/mL fatty acid free-BSA using 2×ATX assay buffer, 10 mg/ml fatty acid free-BSA and ddH2O.
# ATX protein was diluted with 1×ATX assay buffer to a concentration of 1.32 μg/mL (1.32×). 38 μL was added per well to the assay plate. The final concentration of ATX in the reaction as 1.0 μg/mL.
# 2 μL per well of compounds was transferred to provide the desired concentration. The plate was centrifuged, then incubated at room temperature for 30 minutes on the shaker.
# FS-3 was diluted with 1×ATX assay buffer to a concentration of FS-3 of 10 μM (5×). Then, 10 μL was added per well to the assay plate. The final concentration of FS-3 in the reaction was 2 μM. The plate was centrifuged. The plate was kept shaking at room temperature for 2 hours. Because FS-3 substrate is light sensitive, plates were kept covered and protected from light.
# Fluorescence was measured using SpectraMax M5 (excitation at 485 nm/emission at 538 nm, top read).
row,SMILES,IC50 [nM]
1,"O=C(O)C[C@H]1CCCN(Cc2ccc3c(C(F)(F)F)c(OC4CCC(F)(F)CC4)ccc3c2)C1 [Example 4, (R)-2-(1-((6-((4,4-difluorocyclohexyl)oxy)-5-(trifluoromethyl)naphthalen-2-yl)methyl)piperidin-3-yl)acetic acid]",≤ 500
2,"C[C@H]1CC[C@@H](Oc2ccc3cc(CN4CCC(CC(=O)O)C4)ccc3c2C(F)(F)F)CC1 (relative stereo) [Example 46, 1-((5-trifluoromethyl-6-(cis-4-methylcyclohexyloxy)naphthalene-2-yl)methyl)-pyrrolidine-3-acetic acid]",≤ 500
3,"O=C(O)CC1CCN(Cc2ccc3c(C(F)(F)F)c(O[C@H]4CC[C@@H](C(F)(F)F)CC4)ccc3c2)CC1 [Example 65, 1-((5-(trifluoromethyl)-6-((cis-4-(trifluoromethyl)cyclohexyl)oxy)-naphthalen-2-yl)methyl)piperidine-4-acetic acid]",≤ 250
4,"O=C(O)C[C@@H]1CCN(Cc2ccc3c(C(F)(F)F)c(O[C@H]4CC[C@@H](C(F)(F)F)CC4)ccc3c2)C1 [Example 71, (S)-1-((5-(trifluoromethyl)-6-((cis)-4-(trifluoromethyl)cyclohexyloxy)naphthalene-2-yl)methyl)pyrrolidine-3-acetic acid]",≤ 500
5,"O=C(O)C1CCCN(Cc2ccc3c(C(F)(F)F)c(O[C@H]4CC[C@@H](C(F)(F)F)CC4)ccc3c2)CC1 (relative stereo) [Example 76, 1-((5-(trifluoromethyl)-6-((cis-4-(trifluoromethyl)cyclohexyl)oxy)-naphthalen-2-yl)methyl)azepane-4-carboxylic acid]",≤ 500
6,"CCC(c1ccc2c(C(F)F)c(O[C@H]3CC[C@@H](C)CC3)ccc2c1)N1CCC[C@H](CC(=O)O)C1 (stereo partly drawn) [Example 57, 2-((3R)-1-(1-(6-((cis-4-Methylcyclohexyl)oxy)-5-(difluoromethyl)naphthalen-2-yl)propyl)piperidin-3-yl)acetic acid]",≤ 100
7,"C[C@@H](c1ccc2c(C(F)(F)F)c(O[C@H]3CC[C@@H](C)CC3)ccc2c1)N1CCC[C@H](CC(=O)O)C1 [Example 95, 2-((3R)-1-((S)-1-(6-((cis-4-Methylcyclohexyl)oxy)-5-(trifluoromethyl)naphthalen-2-yl)ethyl)piperidin-3-yl)acetic acid]",≤ 100
8,"CC(c1ccc2c(C(F)(F)F)c(O[C@H]3CC[C@@H](C)CC3)ccc2c1)N1CCC(C(=O)O)CC1 (relative stereo) [Example 45, 1-(1-(5-trifluoromethyl-6-(cis-4-methylcyclohexyloxy)naphthalene-2-yl)ethyl)-piperidine-4-carboxylic acid]",≤ 500
9,"O=C(O)C1CC(O)CN(Cc2ccc3c(C(F)(F)F)c(O[C@H]4CC[C@@H](C(F)(F)F)CC4)ccc3c2)C1 (relative stereo) [Example 81, 1-((5-(trifluoromethyl)-6-(cis-4-(trifluoromethyl)cyclohexyloxy)naphthalene-2-yl)methyl)-5-hydroxypiperidine-3-carboxylic acid]",≤ 250
10,"CCC(c1ccc2c(C(F)F)c(O[C@H]3CC[C@@H](C)CC3)ccc2c1)N1CC(CC(=O)O)C1 (relative stereo) [Example 99, 1-(1-(5-(Difluoromethyl)-6-((cis-4-methylcyclohexyl)oxy)naphthalen-2-yl)propyl)azetidine-3-acetic acid]",≤ 100
11,"O=C(O)CC1CN(Cc2ccc3c(C(F)F)c(O[C@H]4CC[C@@H](C(F)(F)F)CC4)ccc3c2)CCO1 (relative stereo) [Example 32, 2-(4-((5-(difluoromethyl)-6-((cis)-4-(trifluoromethyl)cyclohexyloxy)naphthalen-2-yl)methyl)morpholin-2-yl)acetic acid]",≤ 500
12,"C[C@H]1CC[C@@H](Oc2ccc3cc(C(N4CCC(C(=O)O)CC4)C(F)(F)F)ccc3c2C(F)(F)F)CC1 (stereo partly drawn) [Example 12, 1-(2,2,2-Trifluoro-1-(6-((cis-4-methylcyclohexyl)oxy)-5-(trifluoromethyl)naphthalen-2-yl)ethyl)piperidine-4-carboxylic acid]",≤ 500
13,"C[C@H]1CC[C@@H](Oc2ccc3cc(C(C(=O)O)N4CCC(C(=O)O)CC4)ccc3c2C(F)(F)F)CC1 (stereo partly drawn) [Example 11, 1-(Carboxy(6-((cis-4-methylcyclohexyl)oxy)-5-(trifluoromethyl)naphthalen-2-yl)methyl)piperidine-4-carboxylic acid]",≤ 500

# Continued, values first:
row,IC50 [nM],SMILES
1,≤ 100,"CC[C@H]1CC[C@@H](Oc2ccc3cc(CN4CCC[C@H](CC(=O)O)C4)ccc3c2C(F)(F)F)CC1 [Example 84, 2-((R)-1-((2-(cis-4-(ethyl)cyclohexyloxy)-1-(trifluoromethyl)naphthalen-6-yl)methyl)piperidin-3-yl)acetic acid]"
2,≤ 100,"CC[C@@H](c1ccc2c(C(F)(F)F)c(O[C@H]3CC[C@@H](C)CC3)ccc2c1)N1CCC[C@H](CC(=O)O)C1 [Example 59, 2-((3R)-1-((S)-1-(6-((cis-4-Methylcyclohexyl)oxy)-5-(trifluoromethyl)naphthalen-2-yl)propyl)piperidin-3-yl)acetic acid]"
3,≤ 500,"NC1(C(=O)O)CCN(Cc2ccc3c(C(F)(F)F)c(O[C@H]4CC[C@@H](C(F)(F)F)CC4)ccc3c2)C1 (relative stereo) [Example 78, 1-((5-(trifluoromethyl)-6-((cis-4-(trifluoromethyl)cyclohexyl)oxy)-naphthalen-2-yl)methyl)-3-aminopyrrolidine-3-carboxylic acid]"
4,≤ 500,"CC1(C(=O)O)CCN(Cc2ccc3c(C(F)(F)F)c(O[C@H]4CC[C@@H](C(F)(F)F)CC4)ccc3c2)CC1 [Example 30, 4-methyl-1-((5-(trifluoromethyl)-6-((cis)-4-(trifluoromethyl)cyclohexyloxy)naphthalen-2-yl)methyl)piperidine-4-carboxylic acid]"
5,≤ 100,"C[C@@H](c1ccc2c(C(F)F)c(O[C@H]3CC[C@@H](C)CC3)ccc2c1)N1CCC[C@@H](CC(=O)O)C1 [Example 100, 2-((S)-1-((S)-1-(2-(cis-4-methylcyclohexyloxy)-1-(difluoromethyl)naphthalen-6-yl)ethyl)piperidin-3-yl)acetic acid]"
6,≤ 500,"CN(Cc1ccc2c(C(F)(F)F)c(O[C@H]3CC[C@@H](C(F)(F)F)CC3)ccc2c1)[C@H]1CC[C@@H](C(=O)O)CC1 [Example 79, N-methyl-cis-4-(((5-(trifluoromethyl)-6-(cis-4-(trifluoromethyl)cyclohexyloxy)naphthalene-2-yl)methyl)amino)cyclohexane-1-carboxylic acid]"
7,≤ 100,"CC(c1ccc2c(C(F)F)c(O[C@H]3CC[C@@H](C)CC3)ccc2c1)N1CC(CC(=O)O)C1 (relative stereo) [Example 98, 1-(1-(5-(Difluoromethyl)-6-((cis-4-methylcyclohexyl)oxy)naphthalen-2-yl)ethyl)azetidine-3-acetic acid]"
8,≤ 100,"C[C@H]1CC[C@@H](Oc2ccc3cc(CN4CCC[C@H](CC(=O)O)C4)ccc3c2C(F)(F)F)CC1 [Example 49, 2-((3R)-1-((6-((cis-4-Methylcyclohexyl)oxy)-5-(trifluoromethyl)naphthalen-2-yl)methyl)piperidin-3-yl)acetic acid]"
